The source of these data is PMC11973282, “RAS70 peptide targets multiforme glioblastoma by binding to the plasma membrane heat shock protein HSP70” (Frontiers in Oncology, 2025).

The subject of data set [1] is U251 cells (lower chamber; HUVEC and astrocytes barrier). Briefly: Transwell BBB model, peptide passage and accumulation in tumor cells. The note with it: transwell BBB model: HUVEC (5×10^5) and astrocytes (5×10^5) in upper chamber, U251 (1×10^4) in lower chamber; FITC-labeled peptide; 36 hours; confocal microscopy count; M ± SE, 3 independent experiments.
Description: (§1) Then, a peptide labeled with a fluorescent label was introduced into the upper chamber and co-incubation was carried out for 12, 24 and 36 hours. At the end of the incubation, the tumor cells were washed with cold phosphate-buffered saline (PBS) and fixed with a 4% solution of paraformaldehyde in PBS. Nuclei were stained with 4’,6-diamidino-2-phenylindole (DAPI). Fluorescent images were obtained using a Leica TCS SP8 confocal microscope (Leica, Germany). To avoid possible cross-interference of different fluorochromes, images for DAPI and FITC were obtained using a sequential sample scanning method. Fluorescently labeled cells were counted in the lower chamber. To estimate the mHsp70-mediated uptake of chaperone-targeted peptides tumor cells prior to incubation were pre-treated with anti-Hsp70 monoclonal antibodies SPA-810 (1:250, Stressgen) and SPA-815 (1:250 Stressgen). To exclude integrin (αvβ3, αvβ5)-mediated penetration of RAS70 tumor cells prior to incubation with peptides were pre-treated with anti- αvβ3 (1:200 clone LM609, ZMS1030, Sigma-Aldrich, USA), -αvβ5 (1:200 clone P1F6, MAB1961Z, Sigma-Aldrich, USA) monoclonal antibodies.
(§2) Then, a peptide labeled with a fluorescent dye (FITC) was introduced into the upper chamber and co-incubation was carried out for 12, 24 and 36 hours. At the end of the incubation, the tumor cells were washed with cold phosphate-buffered saline (PBS) and fixed with a 4% solution of paraformaldehyde in PBS. Nuclei were stained with 4’,6-diamidino-2-phenylindole (DAPI).
(§3) Data from 3 independent experiments are presented as M ± SE. […] Data from 3 independent experiments are presented as M ± SE. ** p < 0.01 for testing mean expression levels.
The test system of the next data set is primary GBM IBD cells. Put plainly: Cell motility analysis. The format is cell-based, human. The note with it: 56 h recording. How it is done:
The cell speed of the primary GBM culture was determined using Image ExFluorer, an automatic cell imaging device (LCI, Korea). The cells were seeded into 24-well plates, and the cell nuclei were labelled with the fluorescent dye Hoechst 33342. The plates were then placed in an integrated incubator with temperature control (37°C) and 5% CO2. The fluorescence was stimulated at 405 nm using a long-focus semi-apochromatic 20× lens with a numerical aperture of 0.45. The primary IBD cell line was divided into 4 wells, each with five visual fields: two untreated wells on distinct matrices (Collagen I and Fibrinogene) and two wells containing RAS70 peptide on matrices.
FOVs were captured every 15 minutes over 56 hours, resulting in images with a resolution of 2.560 × 2.160 pixels (0.33 μm/px). Real-time focus correction was used. The captured frames were analyzed using the NIS-Elements software with a module for automatic segmentation, quantification, and tracking of individual cells. Cell nuclei (with a diameter of more than 2.5 μm) were recognized in images, and the X-Y coordinates of the nuclei were recorded. Cell movement tracks were built according to the coordinates of the nuclei, and the motility metrics (average speed, maximal speed, and track straightness) were calculated.
Additionally, we evaluated the effect of RAS70 peptide on cell motility of primary glioblastoma culture. In order to investigate the possible influence of the RAS70 peptide on the invasive capacity of tumor cells, we conducted an experiment in which we recorded cell motility on two different substrates (Collagen I, Fibrinogen) for 56 h.

In data set [2] the test system is high-grade glioma biopsy material. Put plainly: Ex vivo topical application on patient brain tumor specimens, confocal/fluorescent microscopy. Set-up: species or system human. The text has this:
To study RAS70 peptide accumulation in the brain tumors the latter were obtained from neuro-oncological patients. Intraoperative biopsy material obtained from adult (n=6) and pediatric (n=2) patients with radiological diagnosis of high-grade gliomas without previous radiation therapy and chemotherapy. The patients underwent microsurgical interventions between February 2024 and July 2024 ( Table 1 ). The study protocol was approved by the Ethics Committee of the Almazov Medical Research Centre (approval No. 2712-20, December 21, 2020).
To evaluate local accumulation of the fluorescently-labeled peptides the latter were sprayed over the freshly dissected brain tumor specimens as follows (1): control group – PBS (50 μL) (2); NGL-sCy7.5 peptide (50 μl, at concentration of 100 μg) (3); NGL-RGD-sCy7.5 peptide (50 μl, at concentration of 100 μg) (4); TKD-sCy7.5 peptide (50 μl, at concentration of 100 μg) (5); […] peptide (50 μl, at concentration of 100 μg). […]
Small pieces of brain tissue (50-100 mm³) were taken from patients or animals during surgery. […] Hoechst 33342 fluorescence was excited with a 405 nm laser and recorded in the range 410 to 550 nm; Hsp70-FITC and Mito Green fluorescence were excited with a 488 nm laser and recorded in the range 495 to 550 nm; and Cy5 fluorescence was excited with a 633 nm laser and recorded in the range 635 to 750 nm. […]
To study the target properties of the peptide RAS70 ex vivo, biopsy material was obtained from adult (n=6) and pediatric (n=2) neurooncological patients ( Table 1 ). […] Subsequently, tumor was co-incubated with peptide at a concentration of 1 mg/mL for 5–10 minutes, after which the tissue sample was washed with a PBS solution and analyzed by live-cell inverted confocal microscopy ( Figures 11A–C ).
To detect peptide localization, the biopsy material was additionally stained with a mitochondrial marker MitoGreen and anti-Hsp70 antibodies (SPA-810). […] Additionally, we assessed the depth of the RAS70-sCy3/sCy5 penetration into the tumor tissues […]. […]

Data set [3] deals with GL261 cells (lower chamber; HUVEC and astrocytes barrier).
Description: as §1, §2, §3

Take `CC(C)C[C@H](NC(=O)[C@H](CC(C)C)NC(=O)[C@H](CC(N)=O)NC(=O)[C@H](CC(N)=O)NC(=O)[C@H](CC(=O)O)NC(=O)[C@H](CCCCN)NC(=O)[C@@H](N)[C@@H](C)O)C(=O)NCC(=O)N[C@@H](CCCNC(=N)N)C(=O)N[C@@H](Cc1ccccc1)C(=O)N[C@@H](CCC(=O)O)C(=O)N[C@@H](CC(C)C)C(=O)N[C@@H](CO)C(=O)NCC(=O)O` [TKD]: the “fluorescently labeled tumor cells in the lower chamber” value in data set [1] was found to be 345 ± 51 cells.

For `CC(C)C[C@H](NC(=O)[C@H](CC(C)C)NC(=O)[C@H](CC(N)=O)NC(=O)[C@H](CC(N)=O)NC(=O)[C@H](CC(=O)O)NC(=O)[C@H](CCCCN)NC(=O)[C@@H](N)[C@@H](C)O)C(=O)NCC(=O)N[C@@H](CCCNC(=N)N)C(=O)N[C@@H](Cc1ccccc1)C(=O)N[C@@H](CCC(=O)O)C(=O)N[C@@H](CC(C)C)C(=O)N[C@@H](CO)C(=O)NCC(=O)NCCC(=O)N[C@@H](CCCNC(=N)N)C(=O)NCC(=O)N[C@@H](CC(=O)O)C(=O)O` [RAS70], in the data set with primary GBM IBD cells (IBD cells on Collagen I), the “effect on average cell speed” value was “no effect on the average cell speed”, the “effect on maximum cell speed” value is listed as “slightly diminished maximum cell speed” and the “effect on track straightness” value is recorded as “increased the straightness of the trajectories”. The “effect on motility metrics (average speed, max speed, track straightness)” value in the data set on primary GBM IBD cells (IBD cells on fibrinogen) was “did not affect any of the measured motility metrics”. Moreover, the “accumulation in patient brain tumor samples” value in data set [2] (1 mg/mL, 5–10 minutes, live-cell inverted confocal microscopy, adult (n=6) and pediatric (n=2) patients) was “noted in all analyzed samples”. For the same molecule, in data set [2] (RAS70-sCy3/sCy5 topically applied on patient tumor samples, histological sections, fluorescent microscopy), the “depth of the peptide penetration into the tumor tissues” value came to 3.0 ± 0.87 mm. Further, the “retention in necrotic tumor areas” value in data set [2] (patient tumor samples, confocal microscopy) is recorded as “non-specific retention of the peptide”. In data set [3], the “fluorescently labeled tumor cells in the lower chamber” value stood at 553 ± 61 cells.
